# What was measured:
# BRD9 = target: T1, BRD9 (Homo sapiens, UniProt Q9H8M2); assay: Rescue of DBr-1 mediated BRD9 degradation by co-treatment, BRD9-HiBiT HEK293 cells; assay type: cell-based; parameters: host or cells: HEK293/BRD9-HiBiT knock-in; clone and BRD9-HiBiT/CAS9/FF clone; conditions: (13) 1 µM, OICR8268 10 µM, BI-9564 10 µM
# T1 sequence (Q9H8M2 1-597): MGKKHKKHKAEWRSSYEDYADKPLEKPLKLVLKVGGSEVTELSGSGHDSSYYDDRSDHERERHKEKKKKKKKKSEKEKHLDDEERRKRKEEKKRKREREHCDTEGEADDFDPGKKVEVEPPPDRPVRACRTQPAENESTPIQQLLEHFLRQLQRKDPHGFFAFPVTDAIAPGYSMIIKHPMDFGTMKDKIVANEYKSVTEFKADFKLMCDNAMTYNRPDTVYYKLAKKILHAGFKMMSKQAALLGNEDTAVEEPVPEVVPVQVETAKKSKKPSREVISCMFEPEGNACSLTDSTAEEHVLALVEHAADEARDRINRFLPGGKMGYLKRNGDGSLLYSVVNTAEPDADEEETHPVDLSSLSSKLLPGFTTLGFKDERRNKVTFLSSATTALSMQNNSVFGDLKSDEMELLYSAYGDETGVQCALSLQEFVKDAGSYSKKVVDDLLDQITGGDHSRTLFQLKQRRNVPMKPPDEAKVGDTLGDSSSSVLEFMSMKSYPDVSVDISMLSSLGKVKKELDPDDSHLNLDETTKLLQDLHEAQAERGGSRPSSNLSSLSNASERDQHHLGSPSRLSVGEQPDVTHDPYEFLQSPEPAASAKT
# Experimental: Supplementary figure 4. Competition experiments with DBr-1 and DBr-1-N […]
# a) BRD9-HiBiT signal detection of samples pretreated with either DMSO, 10µM OICR-8268, 1µM […]
# Data represents average ± standard deviation from n=3 replicates. DC50 values and […]
# maximal observed degradation are shown below. […]
# b) Cell titer Glow assay of BRD9 HiBiT cells. Cells pretreated with either DMSO, 10µM OICR-8268, […]
# Data represents average ± standard deviation from n=3 replicates.
# Source data are provided as a Source Data file
# BTK = BTK (Homo sapiens, UniProt Q06187); assay: Immunoblot of BTK in TMD8 WT and CRBN (CBt) resistant cells; assay type: cell-based; parameters: performed with full-length BTK and endogenous DCAF1; expressed in transfected cells; host or cells: TMD8 cells, lentiviral, blasticidin-selected (TMD8 BTK-GFP/mCh); conditions: 24 h; 0.1 µM CBt, 1 µM DBt-10
# Experimental: Whole cell lysates for immunoblotting were prepared by pelleting cells at 4 °C (300 g) for 3 min. Cell pellets were then washed 1x with PBS and resuspended in RIPA lysis buffer (VWR, cat # 97063-270) supplemented with protease (Thermo Scientific, cat # A32955) and phosphatase (Thermo Scientific, cat # A32957) inhibitor tablets. Lysates were clarified at 16,000 × g for 15 min at 4 °C prior to quantification by Lowry assay (Bio-Rad cat # 5000113 and cat # 5000114). Whole-cell lysates were loaded into 4–20% Criterion TGX Precast 18 well gels (Bio-Rad, cat # 5671094) and separated by electrophoreses at 120 V for 1 h. The gels were transferred to a nitrocellulose membrane using the Trans-Blot Turbo (Bio-Rad) for 7 min and then blocked for 1 h at room temperature in Odyssey blocking buffer (LICOR Biosciences, cat # 927-50000). Membranes were probed with the appropriate primary antibodies (diluted 1:1000) overnight at 4 °C in 20% Odyssey blocking buffer in 1x TBST. Membranes were washed three times with 1x TBST (5 min per wash), and then incubated with IRDye goat anti-mouse (LICOR, cat # 926-32210) or goat anti-rabbit (LICOR, cat # 926-32211) secondary antibody diluted 1:10,000 in 20% Odyssey blocking buffer for 1 h at room temperature. After three 5-min washes with 1x TBST, the immunoblots were visualized using the ODYSSEY Infrared Imaging System (LICOR). […]
# BRD7 = target: T2, BRD7 (Homo sapiens, UniProt Q9NPI1); assay: BRD7-HiBiT protein abundance luminescence assay in HEK293 cells
# T2 sequence (Q9NPI1 1-651): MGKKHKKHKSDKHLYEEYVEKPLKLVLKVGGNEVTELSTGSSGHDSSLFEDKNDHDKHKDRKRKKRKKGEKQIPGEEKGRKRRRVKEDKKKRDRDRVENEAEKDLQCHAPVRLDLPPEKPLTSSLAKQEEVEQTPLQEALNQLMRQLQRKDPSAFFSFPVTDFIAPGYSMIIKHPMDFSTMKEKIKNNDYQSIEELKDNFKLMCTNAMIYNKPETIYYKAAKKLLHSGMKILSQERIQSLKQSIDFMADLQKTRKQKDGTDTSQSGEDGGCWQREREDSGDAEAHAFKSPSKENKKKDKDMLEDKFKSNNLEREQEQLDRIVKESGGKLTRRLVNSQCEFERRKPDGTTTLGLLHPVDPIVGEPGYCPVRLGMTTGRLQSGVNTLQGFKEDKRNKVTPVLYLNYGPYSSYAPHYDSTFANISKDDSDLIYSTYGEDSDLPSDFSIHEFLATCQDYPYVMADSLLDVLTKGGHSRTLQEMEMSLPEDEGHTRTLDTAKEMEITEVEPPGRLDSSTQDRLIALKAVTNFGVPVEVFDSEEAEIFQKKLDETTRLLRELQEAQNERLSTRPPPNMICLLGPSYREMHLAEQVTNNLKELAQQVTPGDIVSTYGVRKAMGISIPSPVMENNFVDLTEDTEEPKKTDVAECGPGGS
# Description: HEK293/BRD9-HiBiT pools (PROMEGA # CS3023120) and HEK293/BRD7-HiBiT pools (PROMEGA # CS3023124) were purchased from Promega. We performed clonal selection for HEK293/BRD9-HiBiT cell line using single-cell sorting and screening for HiBiT expression using Nano-Glo HiBiT Lytic Detection System (Promega # N3030). The HEK293/BRD9-HiBiT clone and HEK293/BRD7-HiBiT pool to perform standard HiBiT assays.
# BTK, sequence (Q06187 2-659 limits assumed): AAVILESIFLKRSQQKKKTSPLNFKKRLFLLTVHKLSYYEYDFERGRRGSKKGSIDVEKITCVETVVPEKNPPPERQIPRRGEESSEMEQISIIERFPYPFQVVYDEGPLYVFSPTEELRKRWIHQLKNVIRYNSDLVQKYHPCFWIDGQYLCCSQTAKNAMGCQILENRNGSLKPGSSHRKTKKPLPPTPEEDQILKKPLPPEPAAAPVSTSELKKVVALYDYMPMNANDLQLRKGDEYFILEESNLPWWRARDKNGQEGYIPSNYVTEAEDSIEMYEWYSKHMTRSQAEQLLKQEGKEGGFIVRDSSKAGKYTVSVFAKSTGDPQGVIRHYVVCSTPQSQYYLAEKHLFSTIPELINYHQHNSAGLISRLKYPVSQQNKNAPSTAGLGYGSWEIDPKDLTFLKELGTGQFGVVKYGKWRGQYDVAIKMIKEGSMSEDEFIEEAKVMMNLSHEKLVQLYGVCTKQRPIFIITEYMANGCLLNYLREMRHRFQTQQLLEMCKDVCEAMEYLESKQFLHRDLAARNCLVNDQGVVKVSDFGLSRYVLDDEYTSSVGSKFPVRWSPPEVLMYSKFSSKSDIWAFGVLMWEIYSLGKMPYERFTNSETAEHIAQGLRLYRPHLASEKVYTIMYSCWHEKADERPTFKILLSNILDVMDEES
smiles,measurement,setting,value
CC(=O)N1CCN(c2ccc3c(NCCN)nc(C4(c5ccc(Cl)cc5)CCCCC4)nc3c2)CC1 [compound 13],effect of co-treatment on DBr-1 mediated BRD9 degradation,BRD9,did not affect the degradation efficacy of DBr-1
Cc1c(NC(=O)N2CC(O)(CC(C)(C)C)C2)cc(F)cc1-c1ncnc2[nH]c(-c3cnn(CC(=O)N4CCC5(CC4)CN(CCNC(=O)CCCC(=O)N4CCN(c6ccc7c(NCCN)nc(C8(c9ccc(Cl)cc9)CCCCC8)nc7c6)CC4)CCO5)c3)cc12 [DBt-10],BTK degradation in TMD8 CBt sensitive (WT) vs resistant cells,BTK,equipotent degradation of BTK
COc1cc(-c2cn(C)c(=O)c3cnccc23)c(OC)cc1CN1CCC(OCCCCCC(=O)N2CCN(c3ccc4c(NCCN)nc(C5(c6ccc(Cl)cc6)CCCCC5)nc4c3)CC2)CC1 [DBr-1],"maximal observed degradation (BRD7), % in brackets",BRD7; 2 h,65%
same,DC50,"BRD7; read-out: rel. DC50 (BRD7), 2 h",360 nM

# Reference: paper PMC10766610, “DCAF1-based PROTACs with activity against clinically validated targets overcoming intrinsic- and acquired-degrader resistance” (Nature Communications, 2024)
